Type in all cases: in vivo
A short description of assay [1]: Comparative Test 2: sucrose equivalence in a 5% sucrose solution, panel of experts. Particulars: for Sucrose equivalence in a 5% sucrose solution, Calculation (5 + x) %: purely additive calculation; for synergy or synergistic additional effect: determined vs calculated sucrose equivalence. As for the experimental part:
(§1) The panelists were asked to test each solution of compound 2 in water against the sucrose series and to grade them according to their degree of sweetness (sucrose equivalent). It was possible to determine the inherent sweetness of compound 2 for the above-mentioned concentrations from the results provided by the panelists. In addition to the sucrose equivalence in water (i.e. without sucrose), the sucrose equivalence in a 5% sucrose solution was also determined.
It was possible to establish a clear synergistic sweetness enhancement even at a low concentration, not sweet per se, of approximately 25 ppm of compound 2 (from Example 1). From a purely calculational point of view, it was to be expected that a 5% sucrose solution (i.e. a sucrose solution which corresponds in sensory manner by definition to 5% sucrose equivalents) which contains 25 ppm or 50 ppm of compound 2 (from Example 1) produced a sweetness of approximately 5.84 or 6.45 sucrose equivalents by a purely additive effect of the inherent sweetness of compound 2 (see the determined sucrose equivalence in water). However, the sensory assessment of such a 5% sucrose solution with 25 ppm or 50 ppm of compound 2 (from Example 1) by the panelists produced an averaged sucrose equivalence of 6.8% or 8.2%. Considering the values to be expected from a purely calculational point of view, this corresponds to a synergy or a synergistic additional effect of approximately 17% or 27%.

A short description of assay [2]: Enhancement of the sweet sensation of a sugar solution, Comparative Test 1, panel of experts. The following applies: for Sweet sensation (1-10) Sample (sucrose + substance): grading 1 [not sweet] to 10 [extremely sweet]; for synergistic enhancement of the sweet taste of a sweet-tasting substance: according to our own experiments. From the text: To quantify the enhancement of the sweet sensation, the sweetness of a 5% sucrose solution was compared by a panel of experts in each case with a sample which contained 5% of sucrose as well as 50 ppm or 100 ppm of a compound of formula (I) to be used according to the invention (grading: 1 [not sweet] to 10 [extremely sweet]).
For the evaluation, i.e. the calculation of the enhancement (in %) of the sweet sensation, the mean values of the assessments by the panel of experts of the sucrose solution and the sample, to be compared, containing sucrose and a compound of formula (I) were used in each case.

Assay [3] in a line: Comparative Test 2: inherent sweetness (sucrose equivalence) in water, panel of experts. The procedure: The inherent sweetness of compound 2 from Example 1, which was dissolved in water in a pure form in different concentrations (0.0025 or 0.0050% by weight in water) was determined by a panel of experts (panelists) using a series of comparisons of different sucrose concentrations in water (0; 0.25; 0.5; 0.75; 1; 1.5; 2; 3; 4 and 5% by weight sucrose in water).
as §1

Assay [4] in a line: Bitter reduction of a bitter substance solution (caffeine), panel of experts. The following applies: for Bitter sensation (1-10) Sample (caffeine + substance): grading 1 [not bitter] to 10 [extremely bitter]. The text has this: To quantify the reduction (i.e. the masking or reduction) of the bitter sensation in a sample, the bitterness of a solution containing 500 ppm of caffeine was compared by a panel of experts in each case with a sample which contained 500 ppm of caffeine and additionally 50 ppm or 100 ppm of a substance to be assessed (in respect of the bitter-reduction ability) (grading: 1 [not bitter] to 10 [extremely bitter]).
For the evaluation, i.e. the calculation of the reduction (in %) of the bitter sensation, the mean values of the assessments by the panel of experts of the caffeine solution and the sample, to be compared, containing caffeine and a substance to be assessed were used in each case. In this respect, 2,4-dihydroxybenzoic acid (2,4-DHB) was used as the comparison (reference) according to U.S. Pat. No. 5,643,941.

Setting [5] is: 50 ppm substance + 5% sucrose vs 5% sucrose solution.
Where [6] appears, read: 50 ppm substance + 500 ppm caffeine vs 500 ppm caffeine solution.
The mark [7] stands for this setting: 50 ppm substance + 500 ppm caffeine.

Take `COc1ccc(C2CCc3ccc(O)cc3O2)cc1O` (racemic) [compound 2, 3′,7-dihydroxy-4′-methoxyflavan]: the “Sucrose equivalence in a 5% sucrose solution, Determination” value in assay [1] (0.0025 % by weight (25 ppm) in 5% sucrose solution) turned out to be 6.8%; in assay [1] (0.0050 % by weight (50 ppm) in 5% sucrose solution) it was 8.2%. The “Sucrose equivalence in a 5% sucrose solution, Calculation (5 + x) %” value in assay [1] (0.0025 % by weight) is reported as 5.84%; in assay [1] (0.0050 % by weight) it was 6.45%. Also, the figures for the “sweetness to be expected by a purely additive effect of the inherent sweetness” value in assay [1] (25 ppm in 5% sucrose solution) and in assay [1] (50 ppm in 5% sucrose solution) were “approximately 5.84 sucrose equivalents” and around 6.45 sucrose equivalents, respectively. Also, the entries for the “synergy or synergistic additional effect” value in assay [1] (25 ppm in 5% sucrose solution) and in assay [1] (50 ppm in 5% sucrose solution) were “approximately 17%” and around 27%, respectively. For the same compound, in assay [2] (setting [5]), the “Enhancement of the sweet sensation” value was found to be 57%. Besides, the “Sweet sensation (1-10) Sample (sucrose + substance)” value (“Sweet sensation (1-10) Sample” for short) in assay [2] (50 ppm substance + 5% sucrose) came out at 8.1 ± 1.3. Further, the “synergistic enhancement of the sweet taste of a sweet-tasting substance” value in assay [2] is listed as “particularly strong synergistic enhancement”. Also, the entries for the “Determination of the sucrose equivalence in water (without sucrose)” value in assay [3] (0.0025 % by weight in water) and in assay [3] (0.0050 % by weight in water) were 0.84% and 1.45%, respectively. In addition, the “Reduction of the bitter sensation” value in assay [4] (setting [6]) is reported as 27%. The “Bitter sensation (1-10) Sample (caffeine + substance)” value (shortened to “Bitter sensation (1-10) Sample”) in assay [4] (setting [7]) amounted to 3.9 ± 1.9.
In the case of `O=C(O)c1ccc(O)cc1O` [2,4-DHB, 2,4-dihydroxybenzoic acid, reference compound], in assay [4] (100 ppm substance + 500 ppm caffeine vs 500 ppm caffeine solution), the “Reduction of the bitter sensation” value came to 3%. For the same compound, the “Bitter sensation (1-10) Sample” value in assay [4] (100 ppm substance + 500 ppm caffeine) is given as 5.0 ± 1.0.
On to `Oc1ccc(C2CCc3ccc(O)cc3O2)cc1` (stereo not shown) [compound 1, 4′,7-dihydroxyflavan], for which, in assay [2] (100 ppm substance + 5% sucrose vs 5% sucrose solution), the “Enhancement of the sweet sensation” value turned out to be 21%. In assay [2] (100 ppm substance + 5% sucrose), the “Sweet sensation (1-10) Sample” value came to 6.2 ± 1.5. In assay [2], the “synergistic enhancement of the sweet taste of a sweet-tasting substance” value is given as “particularly strong synergistic enhancement”.
Consider `COc1cc(C2CCc3ccc(O)cc3O2)ccc1O` (stereo not shown) [compound 3, 4′,7-dihydroxy-3″-methoxyflavan], for which the “Reduction of the bitter sensation” value in assay [4] (setting [6]) is reported as 15%. Also, in assay [4] (setting [7]), the “Bitter sensation (1-10) Sample” value was determined as 4.1 ± 1.4.
As for `Oc1ccc(C2CCc3c(O)cc(O)cc3O2)cc1` (stereo not shown) [compound 14, 4′,5,7-trihydroxyflavan], in assay [4] (setting [6]), the “Reduction of the bitter sensation” value came out at 26%. Besides, the “Bitter sensation (1-10) Sample” value in assay [4] (setting [7]) turned out to be 3.8 ± 1.9.
Regarding `COc1ccc(C2CCc3c(O)cc(O)cc3O2)cc1O` (stereo not shown) [compound 15, 3′,5,7-trihydroxy-4′-methoxyflavan], the “Enhancement of the sweet sensation” value in assay [2] (setting [5]) is listed as 21%. For the same compound, the “Sweet sensation (1-10) Sample” value in assay [2] (50 ppm substance + 5% sucrose) is 5.8 ± 1.6. Moreover, the “Reduction of the bitter sensation” value in assay [4] (setting [6]) turned out to be 15%. Further, the “Bitter sensation (1-10) Sample” value in assay [4] (setting [7]) amounted to 3.8 ± 1.5.
As to `COc1cc(C2CCc3c(O)cc(O)cc3O2)ccc1O` (stereo not shown) [compound 16, 4′,5,7-trihydroxy-3′-methoxyflavan], the “Reduction of the bitter sensation” value in assay [4] (setting [6]) was 5%. In assay [4] (setting [7]), the “Bitter sensation (1-10) Sample” value turned out to be 4.1 ± 2.0.
For `COc1ccc([C@@H]2CCc3ccc(O)cc3O2)cc1O` [compound S-2, (2S)-3′,7-dihydroxy-4″-methoxyflavan], in assay [2] (setting [5]), the “Enhancement of the sweet sensation” value came to 36%. In addition, the “Sweet sensation (1-10) Sample” value in assay [2] (50 ppm substance + 5% sucrose) worked out at 7.8 ± 1.7. In assay [4] (setting [6]), the “Reduction of the bitter sensation” value is 16%. Besides, the “Bitter sensation (1-10) Sample” value in assay [4] (setting [7]) was 3.9 ± 1.5.
